Reference: patent US11254663B2 (BRISTOL-MYERS SQUIBB COMPANY, priority 2019, dated 2022)

Target: FXR (Homo sapiens (Human), UniProt Q96RI1)
Assay: FXR EC50 (FXR agonist potency reported with each Example)
Assay type: cell-based

FXR, sequence (Q96RI1 262-486): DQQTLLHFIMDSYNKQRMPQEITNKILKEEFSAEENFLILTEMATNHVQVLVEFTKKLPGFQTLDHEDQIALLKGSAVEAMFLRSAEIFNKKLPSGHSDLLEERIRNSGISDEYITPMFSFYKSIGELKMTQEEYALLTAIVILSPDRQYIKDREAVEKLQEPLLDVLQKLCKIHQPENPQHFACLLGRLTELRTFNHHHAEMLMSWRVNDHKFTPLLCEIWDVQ

Row | Compound | EC50 [nM]
1 | COc1cc(-c2cccc(N(CC34CCC(c5ccc(C(C)(C)C#N)cc5)(CC3)OC4)C(=O)C34CC(F)(C3)C4)c2)ccn1 [Example 222, N-((1-(4-(2-cyanopropan-2-yl)phenyl)-2-oxabicyclo[2.2.2]octan-4-yl)methyl)-3-fluoro-N-(3-(2-methoxypyridin-4-yl)phenyl)bicyclo[1.1.1]pentane-1-carboxamide] | 285
2 | COc1cccc(-c2cccc(N(CC34CCC(c5nc(C)no5)(CC3)CC4)C(=O)C3CC(F)(F)C3)c2)c1 [Example 220, 3,3-Difluoro-N-(3′-methoxy-[1,1′-biphenyl]-3-yl)-N-((4-(3-methyl-1,2,4-oxadiazol-5-yl)bicyclo[2.2.2]octan-1-yl)methyl)cyclobutane-1-carboxamide] | 547
3 | CC(C)(C)c1nc(C23CCC(CN(C(=O)C45CC(F)(C4)C5)c4cccc(-c5cnn(S(=O)(=O)C6CC6)c5)c4)(CC2)CC3)no1 [Example 195, N-((4-(5-(tert-butyl)-1,2,4-oxadiazol-3-yl)bicyclo[2.2.2]octan-1-yl)methyl)-N-(3-(1-(cyclopropylsulfonyl)-1H-pyrazol-4-yl)phenyl)-3-fluorobicyclo[1.1.1]pentane-1-carboxamide] | 20
4 | Cn1nc(C2CC2)cc1C12CCC(CN(C(=O)C3CC(F)(F)C3)c3cccc(-c4nc(C5CC5)no4)c3)(CC1)CC2 [Example 127, N-(3-(3-cyclopropyl-1,2,4-oxadiazol-5-yl)phenyl)-N-((4-(3-cyclopropyl-1-methyl-1H-pyrazol-5-yl)bicyclo[2.2.2]octan-1-yl)methyl)-3,3-difluorocyclobutane-1-carboxamide] | 374
5 | O=C(C1CCC1)N(CC12CCC(c3nc(C4CC4)no3)(CC1)CC2)c1cccc(-c2nc(CC3CC3)no2)c1 [Example 66, N-((4-(3-cyclopropyl-1,2,4-oxadiazol-5-yl)bicyclo[2.2.2]octan-1-yl)methyl)-N-(3-(3-(cyclopropylmethyl)-1,2,4-oxadiazol-5-yl)phenyl)cyclobutanecarboxamide] | 303
6 | Cc1noc(-c2cccc(N(CC34CCC(c5ccc(C6CC6)cc5)(CC3)CC4)C(=O)C3CC3)c2)n1 [Example 2, N-((4-(4-cyclopropylphenyl)bicyclo[2.2.2]octan-1-yl)methyl)-N-(3-(3-methyl-1,2,4-oxadiazol-5-yl)phenyl)cyclopropanecarboxamide] | 3060

The remaining lines, values ahead:

Row | EC50 [nM] | Compound
7 | 49 | CC(C)(C)c1nc(C23CCC(CN(C(=O)C45CC(F)(C4)C5)c4cncc(-c5nc(C6CC6)no5)c4)(CC2)CC3)no1 [Example 206, N-((4-(5-(tert-butyl)-1,2,4-oxadiazol-3-yl)bicyclo[2.2.2]octan-1-yl)methyl)-N-(5-(3-cyclopropyl-1,2,4-oxadiazol-5-yl)pyridin-3-yl)-3-fluorobicyclo[1.1.1]pentane-1-carboxamide]
8 | 166 | O=C(N(CC12CCC(c3nc(C4CC4)no3)(CC1)CC2)c1cccc(-c2nc(CCl)co2)c1)C12CC(F)(C1)C2 [Example 14, N-(3-(4-(chloromethyl)oxazol-2-yl)phenyl)-N-((4-(3-cyclopropyl-1,2,4-oxadiazol-5-yl)bicyclo[2.2.2]octan-1-yl)methyl)-3-fluorobicyclo[1.1.1]pentane-1-carboxamide]
9 | 590 | CCNC(=O)N(CC12CCC(c3nc(C4CC4)no3)(CC1)CC2)c1cccc(-c2nc(C3CC3)no2)c1 [Example 95, 1-((4-(3-cyclopropyl-1,2,4-oxadiazol-5-yl)bicyclo[2.2.2]octan-1-yl)methyl)-1-(3-(3-cyclopropyl-1,2,4-oxadiazol-5-yl)phenyl)-3-ethylurea]
10 | 1440 | CC(N(C(=O)C12CC(F)(C1)C2)c1cccc(-c2nc(C3CC3)no2)c1)C12CCC(c3nc(C4CC4)no3)(CC1)CC2 (single isomer, unassigned) [Example 217, N-(1-(4-(3-cyclopropyl-1,2,4-oxadiazol-5-yl)bicyclo[2.2.2]octan-1-yl)ethyl)-N-(3-(3-cyclopropyl-1,2,4-oxadiazol-5-yl)phenyl)-3-fluorobicyclo[1.1.1]pentane-1-carboxamide]
